In patent US8962677B2, “Methods of restoring cognitive ability using non-peptidic compounds” (Acumen Pharmaceuticals, Inc., priority 2007, dated 2015):
Values belong to the compound of their own block, whether it stands above or below them.

Assays:
Aβ1-42 = Aβ1-42 (Homo sapiens, UniProt P05067); assay: FRET assay of Aβ1-42 oligomer (ADDL) assembly; assay type: biochemical; settings: for IC50: FRET assay of Example 1, formation of neurotoxic ADDLs
Excerpt: Fluorescence (or Förster) Resonance Energy Transfer (FRET) is a distance-dependent, non-radiative transfer of energy in which the de-excitation of one fluorophore (donor) is coupled to excitation of another fluorophore (acceptor). FRET occurs if (1) the quantum of energy emitted by a donor fluorophore corresponds to an acceptor fluorophore's excitation energy, (2) the orientations of donor and acceptor transition dipoles are nearly parallel and (3) the donor fluorescent emission spectrum overlaps the acceptor absorption spectrum.
In this assay, Aβ1-42 oligomer formation is monitored by FRET using N-terminal conjugates of fluorescein-Aβ1-42 as both the donor and acceptor fluorophore (fluorescein-fluorescein Ro˜45 Å). […] Inhibition of Aβ1-42 assembly is observed as the absence or attenuation of fluorescein quenching.
FRET and FP assays are performed in 384-well Corning Non-Binding Surface, black, opaque microtiter plates, and the assay buffer consists of 50 mM MOPS-Tris (pH 8.0) with 100 mM MgCl2. The assay volume, containing 0.2 μM FITC-Aβ(1-42) and 0.8 μM Aβ(1-42), is 50 μl and the temperature is 37° C. ADDL assembly is monitored on a Tecan GENios Pro plate reader, exciting at a wavelength of 485 nm and detecting emission at a wavelength of 515 nm. Kinetic traces are collected by recording fluorescence intensity and polarization readings every five minutes over about three to about a six-hour time course. […] Positive control reactions contain all buffer components in the absence of added small molecule or antibody reagents. To test for ADDL assembly inhibition, the non-peptidic compound was incubated with the peptide mixture at six concentrations from about 30 μM decreasing to about 0.05 μM.
Test Compound A appears as compound 7 in Table 1.

[1] = cited from earlier work
[2] = cited from earlier work; remark: listed apart in the source
Aβ1-42 ADDLs = target: T1, Aβ1-42 ADDLs (Homo sapiens, UniProt P05067); assay: Alternating Lever Cyclic Ratio (ALCR) rat model; assay type: in vivo; settings: for Approach Errors Mean / Perseveration Errors Mean: base line error rate equalized to 1.00; for error rates versus baseline: given alone
T1 construct: Synthetic Aβ1-42 powder was dissolved in 1,1,1,3,3,3 hexafluorisopropanol (HFIP); host or cells: chemically synthesised peptide
Procedure: Preparations of Aβ1-42 ADDLs and a potential therapeutic compounds under the Alternating Lever Cyclic Ratio (ALCR) rat model of AD were tested. This highly sensitive model has been able to detect cognitive deficits due to direct injection of cell-derived Aβ oligomers into rat brain. In this study, a direct injection of ADDLs made from synthetic Aβ1-42 and a putative therapeutic compound under the ALCR procedure were tested.
The ALCR test has proven to be much more sensitive than previously published methods for measuring drug effects on cognitive function. In this task, rats must learn a complex sequence of lever-pressing requirements in order to earn food reinforcement in a two-lever experimental chamber. Subjects must alternate between two levers by switching to the other lever after pressing the first lever enough to get food reward. The exact number of presses required for each food reward changes, first increasing from 2 responses per food pellet up to 56 presses per food pellet, then decreasing back to 2 responses per pellet. Intermediate values were based on the quadratic function, x^2−x. One cycle was an entire ascending and descending sequence of these lever press requirements (e.g., 2, 6, 12, 20, 30, 42, 56, 56, 42, 30, 20, 12, 6, and 2 presses per food reward). Six such full cycles were presented during each daily session.
Synthetic Aβ1-42 powder was dissolved in 1,1,1,3,3,3 hexafluorisopropanol (HFIP) to afford a solution of Aβ1-42 in HFIP of about 1 mM and allowed to incubate at ambient temperature for about 1 h. The resulting solution was chilled on ice for about 5-10 min, then aliquoted into eppendorf tubes to provide about 50 μl of solution per tube. The tubes were then placed in a chemical fume hood and allowed to stand overnight to allow the HFIP to evaporate under a slow stream of nitrogen. To removed final traces of HFIP, the tubes were subjected to two SpeedVac cycles of 15 min at room temperature and about 15 to 25 in Hg of vacuum. The resulting films of monomerized Aβ1-42 peptide were stored over desiccant at −80° C. until used.
A tube of monomerized Aβ1-42 peptide was warmed to room temperature and the Aβ1-42 peptide was dissolved in anhydrous DMSO to afford a peptide stock DMSO solution containing about 10 μM to about 100 μM Aβ1-42 peptide in DMSO.
2 μl of a 20 mM stock solution of test compound in anhydrous DMSO is added to 998 μl of neural basal media (phenol red free, Gibco 12348-017) to give a compound neural basal media solution containing 40 μM of test compound in neural basal media.
For the Aβ1-42 peptide only treatment, peptide stock DMSO solution is added to 37° C. neural basal to obtain the requisite Aβ1-42 peptide monomer concentration, provided that the maximum concentration of DMSO is 1% or less, and the tube is vortexed for 30 to 60 seconds, spun down briefly in a microfuge and incubated at 37° C. for 15 min prior to the start of injections.
For the Aβ1-42 peptide plus test compound treatment, peptide stock DMSO solution is added to 37° C. compound neural basal media solution to obtain the requisite Aβ1-42 peptide monomer concentration, provided that the maximum concentration of DMSO is 1% or less, and the tube is vortexed for 30 to 36 seconds, spun down briefly in a microfuge and incubated at 37° C. for 15 min prior to the start of injections.
For control injections, compound neural basal media solution is incubated at 37° C. for 15 min prior to the start of injections.
Rats: Rats were trained under ALCR until their error rates were stable. Once the rats were placed upon the final ALCR procedure, training sessions were conducted 7 days each week until the end of the study.
Surgery: All rats received a single 28 ga cannula, which was permanently affixed to the skull, and aimed at the lateral ventricle. Half the rats received cannula in the right ventricle and half received cannula in the left ventricle. Rats were allowed 5 days to recover from surgery before training resumed. […]

[3] = compound combined with Aβ1-42 ADDLs
[4] = injectate alone, 20 μl via ventricular cannula, tested about 3 hours after injection

T1 sequence (P05067 672-713 limits assumed): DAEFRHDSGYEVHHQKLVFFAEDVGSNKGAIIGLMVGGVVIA
Chain of Aβ1-42 (P05067 672-713 limits assumed): as above

Compound: NCCCS(=O)(=O)O [Alzhemed, 3-amino-1-propanesulfonic acid]
blocking of Aβ1-42 monomer assembly into Aβ oligomers (Aβ1-42; standard FRET assay conditions of Example 1, FIG. 2): inability of the compound Alzhemed to inhibit Aβ1-42 monomer assembly into Aβ oligomers | cognitive decline ([1]; 20 month open-label extension of Phase II trial, patients with mild AD): slowed cognitive decline in some patients | efficacy ([1]; blinded phase of the Phase II study): no efficacy was observed

Compound: Oc1c(I)cc(Cl)c2cccnc12 [Clioquinol]
patients' cognitive ability ([2]; compared to untreated patients): stabilize the patients' cognitive ability | Aβ1-42 levels in plasma ([2]; patients' plasma): lower Aβ1-42 levels

Compound: Cn1nccc1C(=O)C/C(=N/NC(=O)c1ccccc1O)C(F)(F)F [Compound 1, 2-Hydroxy-benzoic acid [3-oxo-3-(1-methyl-1H-pyrazol-5-yl)-1-trifluoromethyl-prop-(Z)-ylidene]-hydrazide]
IC50 (Aβ1-42): 17.7 µM

Compound: CCOC(=O)c1c(NC(=O)C(=O)N/N=C/c2ccccc2O)sc2c1CCC(C)C2 (centres unmarked) [Compound 7, 2-{[1-(2-Hydroxyphenyl)-meth-(E)-ylidene-hydrazinooxalyl]-amino}-6-methyl-4,5,6,7-tetrahydro-benzo[b]thiophene-3-carboxylic acid ethyl ester]
inhibition of Aβ1-42 oligomer assembly (Aβ1-42; 1 mM Aβ1-42 total monomer, 100 mM MgCl2, compound 0.05 to 3 mM (so in the source), FIG. 1): dose dependent inhibition of Aβ1-42 oligomer assembly

Compound: COc1ccc(NC(=O)C(=O)N2N=C(CCC(C)C)CC2(O)C(F)(F)F)cc1 (centres unmarked) [Compound 21, 2-(5-hydroxy-3-isopentyl-5-(trifluoromethyl)-4,5-dihydro-1H-pyrazol-1-yl)-N-(4-methoxyphenyl)-2-oxoacetamide]
IC50 (Aβ1-42): 6.4 µM

Approach Errors Mean (Aβ1-42 ADDLs; [3]): 1.00 | Perseveration Errors Mean (Aβ1-42 ADDLs; [3]): 0.92 | error rates versus baseline (Aβ1-42 ADDLs): did not increase error rates | Approach Errors Mean (Aβ1-42 ADDLs; [4]): 0.96 | Perseveration Errors Mean (Aβ1-42 ADDLs; [4]): 0.95
Compound: O=C(N/N=C/c1c(O)ccc2ccccc12)c1ccccc1O [Compound 24, (E)-2-hydroxy-N′-((2-hydroxynaphthalen-1-yl)methylene)benzohydrazide]
effect on ADDL-induced increase in Perseveration Errors (Aβ1-42 ADDLs; combined with the requisite concentration of Aβ1-42 ADDLs): eliminated the increase in Perseveration Errors

Compound: Aβ1-42 ADDLs: ADDLs made from synthetic Aβ1-42; soluble, oligomeric, globular, non-fibrillar, neurotoxic Aβ1-42 peptides [reference compound]
error rates versus baseline (Aβ1-42 ADDLs): significantly increased Perseveration Error rate | Approach Errors Mean (Aβ1-42 ADDLs; [4]): 1.02 | Perseveration Errors Mean (Aβ1-42 ADDLs; [4]): 1.33
